What was measured:
[1] = system: histidinol dehydrogenase (HDH) N94-TGA; experiment: Mass spectrometry of suppressed histidinol dehydrogenase (cognate amino acid encoding); type: cell-based, E. coli; details: MS/MS of tryptic fragment
Text: (§1) For expression in mammalian cells, the cDNA for the coding region and 200 base-pair of the 3′ untranslated region (UTR) of human CFTR was ligated into pcDNA3.1(+) (Promega, USA) using the KpnI and XbaI restriction enzymes. The G542tga and W1282tga mutations were introduced using QuickChange XL II (Stratagene, USA). For expression in Xenopus laevis oocytes, the cDNA for the coding region and 140 base-pair of the 5′ and 244 base-pair 3′ UTR of human CFTR was ligated into pGEM-HE (Promega, USA). Bothe the G542tga and W1282tga mutations were introduced using QuickChange XL II. The cDNA encoding the E. coli histidinol dehydrogenase was codon optimized for Mus musculus and synthesized (BioBasic Inc, Canada) with a c-terminal 8xHis-Strep-tag for protein purification from mammalian cells. The synthesized cDNA was ligated into pcDNA3.1(+) using EcoRI and XhoI restriction sites. The nonsense mutations tag, taa and tga were introduced using QuickChange XL II. […]

CFTR W1282X = CFTR W1282X rescue, western blot in HEK cells; type: cell-based, human; details: CFTR W1282X cDNA co-expressed in HEK cells, antibody M3A7
Procedure: To assess is these novel tRNA could rescue CFTR channels harboring nonsense codons, they were co-expressed in mammalian HEK cells with a CFTR W1282X cDNA plasmid. The cellular preparations were analyzed by standard biochemical approaches via Western blot assessment of CFTR protein. […] Specifically, the “B” and “C” bands represent the full-length and fully mature, post-translationally proceeded CFTR protein at the cell surface, respectively. […] FIG. 9.
as §1, with “sites.” for “sites. The nonsense mutations tag, taa and tga were introduced using QuickChange XL II.”

Molecule: Trpchr17.trna39: top performing tryptophan ACE-tRNA UGA suppressor, SEQ ID NO: 48
- mass modification of Asn at HDH N94 [1]: +72 Da
- rescue of full-length CFTR protein (B and C bands) (CFTR W1282X): robust populations of ‘B’ and ‘C’ CFTR immunopositive (antibody MA37) bands

B1: Glychr19.trna2: top performing glycine ACE-tRNA UGA suppressor, SEQ ID NO: 53 (nucleic acid)
chain: GCGTTGGTGGTATAGTGGTTAGCATAGCTGCCTTCAAAGCAGTTGACCCGGGTTCGATTCCCGGCCAACGCA
modifications: chemistry not fully specified
- mass modification of Asn at HDH N94 [1]: −57 Da
- rescue of full-length CFTR protein (B and C bands) (CFTR W1282X): robust populations of ‘B’ and ‘C’ CFTR immunopositive (antibody MA37) bands

Reference: patent publication US20230203482A1, “Methods of Rescuing Stop Codons via Genetic Reassignment with ACE-tRNA” (THE WISTAR INSTITUTE OF ANATOMY AND BIOLOGY, priority 2017, published 2023)
